# Measured values: ChEMBL document CHEMBL4400539, “Discovery of a Novel Chemotype of Histone Lysine Methyltransferase EHMT1/2 (GLP/G9a) Inhibitors: Rational Design, Synthesis, Biological Evaluation, and Co-crystal Structure” (J Med Chem, 2019)
# What was measured:
# [1] = target: T1, Histone-lysine N-methyltransferase EHMT1 (Homo sapiens) (UniProt Q9H9B1); assay: Inhibition of recombinant human GLP at 25 uM using biotinylated-Histone H3 peptide (1 to 21 residues) after 30 mins by AlphaLISA assay relative to control
# T1 sequence (whole entry): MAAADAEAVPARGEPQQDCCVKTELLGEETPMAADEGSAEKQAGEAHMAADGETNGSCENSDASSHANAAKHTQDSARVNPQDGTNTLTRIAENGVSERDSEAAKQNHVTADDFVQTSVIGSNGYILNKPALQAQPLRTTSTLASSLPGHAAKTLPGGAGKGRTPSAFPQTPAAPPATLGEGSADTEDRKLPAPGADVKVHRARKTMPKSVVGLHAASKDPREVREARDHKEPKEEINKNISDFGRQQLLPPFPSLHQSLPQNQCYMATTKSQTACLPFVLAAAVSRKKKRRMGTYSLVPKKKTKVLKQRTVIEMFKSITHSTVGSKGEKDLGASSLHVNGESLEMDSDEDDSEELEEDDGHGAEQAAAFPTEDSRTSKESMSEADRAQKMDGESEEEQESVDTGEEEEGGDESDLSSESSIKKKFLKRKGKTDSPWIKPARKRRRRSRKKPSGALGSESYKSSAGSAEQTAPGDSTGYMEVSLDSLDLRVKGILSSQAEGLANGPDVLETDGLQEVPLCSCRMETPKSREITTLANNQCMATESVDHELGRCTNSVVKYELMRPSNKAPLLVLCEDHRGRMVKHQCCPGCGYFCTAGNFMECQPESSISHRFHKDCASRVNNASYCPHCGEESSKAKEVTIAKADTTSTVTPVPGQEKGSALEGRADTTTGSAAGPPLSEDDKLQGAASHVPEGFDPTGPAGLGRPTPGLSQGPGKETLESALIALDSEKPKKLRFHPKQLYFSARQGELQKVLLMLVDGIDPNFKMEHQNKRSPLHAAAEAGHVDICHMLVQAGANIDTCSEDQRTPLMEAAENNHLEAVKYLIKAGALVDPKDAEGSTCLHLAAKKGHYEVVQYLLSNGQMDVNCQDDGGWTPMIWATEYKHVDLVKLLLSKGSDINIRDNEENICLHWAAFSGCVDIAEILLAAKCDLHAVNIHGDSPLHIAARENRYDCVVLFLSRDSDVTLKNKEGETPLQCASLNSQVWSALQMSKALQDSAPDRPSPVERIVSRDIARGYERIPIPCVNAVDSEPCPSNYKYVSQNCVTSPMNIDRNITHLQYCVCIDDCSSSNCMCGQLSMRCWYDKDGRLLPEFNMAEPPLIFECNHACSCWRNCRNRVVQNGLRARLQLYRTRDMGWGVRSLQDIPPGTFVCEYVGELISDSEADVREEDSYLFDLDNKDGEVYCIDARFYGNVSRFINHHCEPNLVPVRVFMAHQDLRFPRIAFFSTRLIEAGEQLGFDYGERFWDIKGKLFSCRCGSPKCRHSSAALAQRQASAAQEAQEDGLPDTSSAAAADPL
# [2] = target: T1, Histone-lysine N-methyltransferase EHMT1 (Homo sapiens); assay: Inhibition of recombinant human GLP at 10 uM using biotinylated-Histone H3 peptide (1 to 21 residues) after 30 mins by AlphaLISA assay relative to control
compound,measurement,setting,value
COc1cc2c(cc1OCCCN1CCCC1)N=C(C1CCCCC1)CN=C2NC1CCN(C(C)C)CC1,inhibition,[1],98%
same,inhibition,[2],95%
